Source: US7879344B2, “Transdermal delivery of oleocanthal for relief of inflammation” (Kimberly-Clark Worldwide, Inc., priority 2006, dated 2011)

Legend:
[1] = phenolic group of oleocanthal; carboxylic acid group of ibuprofen and similar NSAIDs; cited from earlier work
[2] = solubility in fats and oils (stated in the text, no test described); type: physicochemical; conditions: "it has been discovered", no data given
Source text: Traditionally, it has been difficult to administer ibuprofen and other similar NSAIDs transdermally. […] This is particularly problematic for transdermal administration, given the high concentration of lipids in the stratum corneum. Consequently, formulating a transdermal ibuprofen-containing composition that is capable of penetrating through the stratum corneum in effective amounts is difficult.
Without wishing to be bound to any particular theory, it is believed that the ability of oleocanthal to remain in a neutral state over a broad pH range contributes to the ability of oleocanthal to more readily penetrate the stratum corneum, as compared to ibuprofen and similar NSAIDs. […] This is advantageous for transdermal delivery. Since most transdermal compositions are formulated to have a pH of from about 3.5 to about 8.5, and more typically from about 5.0 to about 6.0, oleocanthal will mostly be in its neutral, non-ionized state when the transdermal composition is contacted with skin. In contrast, ibuprofen and similar NSAIDs, which contain a carboxylic acid group that may begin to ionize at a pH of about 4.0, will be all or partly in their ionized state (and thus […]) when the transdermal composition is contacted with skin. Consequently, oleocanthal penetrates the stratum corneum more readily than ibuprofen and other similar NSAIDs.

Row | SMILES | pH at which the ionisable group begins to ionize [1] | solubility in fats and oils [2]
1 | CC(C)Cc1ccc(C(C)C(=O)O)cc1 (stereo not drawn) [ibuprofen, reference compound] | about 4.0 pH | –
2 | C/C=C(/C=O)[C@@H](CC=O)CC(=O)OCCc1ccc(O)cc1 [oleocanthal] | about 9.5 pH | highly soluble
